This note sets out measurements from patent US5712297A, “Piperdine compounds and their preparation and use” (Novo Nordisk A/S, priority 1989, dated 1998).

Where a name gives a salt, the structure may show the parent alone.

The test has as its target muscarinic acetylcholine receptors. The test can be described thus: Inhibition of specific binding of 3H-Oxotremorine-M (3H-Oxo). On the set-up: species or system rat (male Wistar. Conditions: rat cortex; 3H-Oxotremorine 1.0 nM; 20 mM Hepes pH 7.4; 30 min at 25° C. Here is the method:
The pharmacological properties of the compounds of the present invention (Formula I) can be illustrated by determining their capability to inhibit the specific binding of ^3 H-Oxotremorine-M (^3 H-Oxo).
^3 H-Oxo labels muscarinic receptors in the CNS (with a preference for agonist domaines of the receptors). Three different sites are labelled by 3H-Oxo. These sites have affinity of 1.0, 20 and 3000 nM, respectively. Using the present experimental conditions only the high and medium affinity sites are determined. The inhibitory effects of compounds on ^3 H-Oxo binding reflects the affinity for muscarinic acetylcholine receptors.
All preparations are performed at 0°-4° C. unless otherwise indicated. Fresh cortex (0.1-1 g) from male Wistar rats (150-250 g) is homogenized for 5-10 s in 10 ml 20 mM Hepes pH: 7.4, with an Ultra-Turrax homogenizer. The homogenizer is rinsed with 10 ml of buffer and the combined suspension centrifuged for 15 min at 40,000×g. The pellet is washed three times with buffer. In each step the pellet is homogenized as before in 2×10 ml of buffer and centrifuged for 10 min at 40,000×g. The final pellet is homogenized in 20 mM Hepes pH: 7.4 (100 ml per g of original tissue) and used for binding assay. Aliquots of 0.5 ml is added 25 μl of test solution and 25 μl of ^3 H-Oxotremorine (1.0 nM, final concentration) mixed and incubated for 30 min at 25° C. Non-specific binding is determined in triplicate using Arecoline (1 μg/ml, final concentration) as the test substance. After incubation samples are added 5 ml of ice-cold buffer and poured directly onto Whatman GF/C glass fiber filters under suction and immediately washed 2 times with 5 ml of ice-cold buffer. The amount of radioactivity on the filters are determined by conventional liquid scintillation counting. Specific binding is total binding minus non-specific binding. Test substances are dissolved in 10 ml water (if necessary heated on a steam-bath for less than 5 minutes) at a concentration of 2.2 mg/ml. 25-75% inhibition of specific binding must be obtained before calculation of IC50.
The test value will be given as IC50 (the concentration (ng/ml) of the test substance which inhibits the specific binding of ^3 H-Oxo by 50%). [formula] where Co is specific binding in control assays and Cx is the specific binding in the test assay. (The calculations assume normal mass-action kinetics).
On to `CN1CCC=C(c2nonc2Cl)C1.O=C(O)C(=O)O` [Compound 52, 3-(4-chloro-1,2,5-oxadiazol-3-yl)-1,2,5,6-tetrahydro-1-methylpyridine oxalate], for which the “Inhibition in vitro OXO BINDING (IC50: concentration which inhibits the specific binding of 3H-Oxo by 50%)” value was found to be 65 ng/mL.

On to `CCCCOc1nonc1C1=CCCN(C)C1.O=C(O)C(=O)O` [Compound 55, 3-(4-butyloxy-1,2,5-oxadiazol-3-yl)-1,2,5,6-tetrahydro-1-methylpyridine oxalate], for which the “Inhibition in vitro OXO BINDING (IC50: concentration which inhibits the specific binding of 3H-Oxo by 50%)” value amounted to 8 ng/mL.

With `CC1CCN(c2nsnc2C2=CCCN(C)C2)CC1.O=C(O)C(=O)O` [Compound 44, 3-(4-(4-methylpiperidino)-1,2,5-thiadiazol-3-yl)-1,2,5,6-tetrahydro-1-methylpyridine oxalate], the “Inhibition in vitro OXO BINDING (IC50: concentration which inhibits the specific binding of 3H-Oxo by 50%)” value is 14 ng/mL.

In the case of `CCCCCSc1nsnc1C1=CCCN(C)C1` [Compound 66, 3-(4-pentylthio-1,2,5-thiadiazol-3-yl)-1,2,5,6-tetrahydro-1-methylpyridineoxalate], the “Inhibition in vitro OXO BINDING (IC50: concentration which inhibits the specific binding of 3H-Oxo by 50%)” value was found to be 1.8 ng/mL.

With `COCCOCCOc1nsnc1C1=CCCN(C)C1.O=C(O)C(=O)O` [Compound 38, 3-(4-(2-(2-methoxyethoxy)ethoxy)-1,2,5-thiadiazol-3-yl)-1,2,5,6-tetrahydro-1-methylpyridine oxalate], the “Inhibition in vitro OXO BINDING (IC50: concentration which inhibits the specific binding of 3H-Oxo by 50%)” value came out at 7.4 ng/mL.

For the compound `CCCCOCCOCCOc1nsnc1C1=CCCN(C)C1.O=C(O)C(=O)O` [Compound 42, 3-(4-(2-(2-butoxyethoxy)ethoxy)-1,2,5-thiadiazol-3-yl)-1,2,5,6-tetrahydro-1-methylpyridine oxalate], the “Inhibition in vitro OXO BINDING (IC50: concentration which inhibits the specific binding of 3H-Oxo by 50%)” value is 7.0 ng/mL.

For `CC#CCOc1nsnc1C1=CCCN(C)C1.O=C(O)C(=O)O` [Compound 12, 3-(4-(2-butynyloxy)-1,2,5-thiadiazol-3-yl)-1,2,5,6-tetrahydro-1-methylpyridine oxalate], the “Inhibition in vitro OXO BINDING (IC50: concentration which inhibits the specific binding of 3H-Oxo by 50%)” value stood at 0.3 ng/mL.

Consider `CCCOc1nsnc1C1=CCCN(C)C1.O=C(O)C(=O)O` [Compound 3, 1,2,5,6-tetrahydro-1-methyl-3-(4-propoxy-1,2,5-thiadiazol-3-yl)pyridine oxalate], for which the “Inhibition in vitro OXO BINDING (IC50: concentration which inhibits the specific binding of 3H-Oxo by 50%)” value was found to be 0.2 ng/mL.

`CN1CCC=C(c2nonc2N)C1.O=C(O)C(=O)O` [Compound 50, 3-(4-amino-1,2,5-oxadiazol-3-yl)-1,2,5,6-tetrahydro-1-methylpyridine oxalate]: the “Inhibition in vitro OXO BINDING (IC50: concentration which inhibits the specific binding of 3H-Oxo by 50%)” value stood at 300 ng/mL.

As for `CC(C)COc1nsnc1C1=CCCN(C)C1.O=C(O)C(=O)O` [Compound 7, 1,2,5,6-tetrahydro-3-(4-isobutoxy-1,2,5-thiadiazol-3-yl)-1-methylpyridine oxalate], the “Inhibition in vitro OXO BINDING (IC50: concentration which inhibits the specific binding of 3H-Oxo by 50%)” value is 1.7 ng/mL.

Take `C=CC(C)Oc1nsnc1C1=CCCN(C)C1` (centres unmarked) [Compound 28, 3-(4-(3-butenyl-2-oxy)-1,2,5-thiadiazol-3-yl)-1,2,5,6-tetrahydro-1-methylpyridine oxalate]: the “Inhibition in vitro OXO BINDING (IC50: concentration which inhibits the specific binding of 3H-Oxo by 50%)” value turned out to be 1.3 ng/mL.

With `CCCCCCCc1nsnc1C1=CCCN(C)C1` [Compound 58, 3-(4-heptyl-1,2,5-thiadiazol-3-yl)-1,2,5,6-tetrahydro-1-methylpyridinium oxalate], the “Inhibition in vitro OXO BINDING (IC50: concentration which inhibits the specific binding of 3H-Oxo by 50%)” value amounted to 50 ng/mL.

For `CCCCOc1nsnc1C1=CCCN(C)C1.O=C(O)C(=O)O` [Compound 4, 3-(4-butoxy-1,2,5-thiadiazol-3-yl)-1,2,5,6-tetrahydro-1-methylpyridine oxalate], the “Inhibition in vitro OXO BINDING (IC50: concentration which inhibits the specific binding of 3H-Oxo by 50%)” value worked out at 0.5 ng/mL.

Turning to `CCCCSc1nsnc1C1=CCCN(C)C1.O=C(O)C(=O)O` [Compound 48, 3-(4-butylthio-1,2,5-thiadiazol-3-yl)-1,2,5,6-tetrahydro-1-methylpyridine oxalate], the “Inhibition in vitro OXO BINDING (IC50: concentration which inhibits the specific binding of 3H-Oxo by 50%)” value was determined as 0.6 ng/mL.
